Data as given in ChEMBL document CHEMBL1201862, “PubChem BioAssay data set” (2004).
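Cultured in 96-well plates, cells were exposed to test compound for 48 hours across five concentrations. GI50 marks 50% less growth.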 The source made the active and inactive calls. No stated cut-off is given here; in the data, active = GI50 up to about 1.1 µM and inactive = higher.

Key:
Assay in all cases: growth of human tumour cells (NCI), 48 h
Hs-578T = tested on: Hs-578T
LOX IMVI = tested on: LOX IMVI
OVCAR-5 = tested on: OVCAR-5
UACC-62 = tested on: UACC-62
HL-60 = tested on: HL-60
COLO 205 = tested on: COLO 205
U-251 = tested on: U-251
786-0 = tested on: 786-0
KM12 = tested on: KM12
SK-MEL-28 = tested on: SK-MEL-28
SN12C = tested on: SN12C
EKVX = tested on: EKVX
OVCAR-8 = tested on: OVCAR-8
OVCAR-3 = tested on: OVCAR-3
NCI/ADR-RES = tested on: NCI/ADR-RES
NCI-H522 = tested on: NCI-H522
SF-268 = tested on: SF-268
HOP-62 = tested on: HOP-62
OVCAR-4 = tested on: OVCAR-4
NCI-H23 = tested on: NCI-H23
SNB-19 = tested on: SNB-19
SK-OV-3 = tested on: SK-OV-3
CAKI-1 = tested on: CAKI-1
NCI-H460 = tested on: NCI-H460
HT-29 = tested on: HT-29
BT-549 = tested on: BT-549
UO-31 = tested on: UO-31
A549 = tested on: A549
MDA-N = tested on: MDA-N
RXF 393 = tested on: RXF 393
HCT-116 = tested on: HCT-116
DU-145 = tested on: DU-145
SK-MEL-5 = tested on: SK-MEL-5
T47D = tested on: T47D
ACHN = tested on: ACHN
RPMI-8226 = tested on: RPMI-8226
K562 = tested on: K562
A498 = tested on: A498
HCT-15 = tested on: HCT-15
TK-10 = tested on: TK-10
CCRF-CEM = tested on: CCRF-CEM
MCF7 = tested on: MCF7
HCC 2998 = tested on: HCC 2998
PC-3 = tested on: PC-3
SF-539 = tested on: SF-539
UACC-257 = tested on: UACC-257
MDA-MB-231 = tested on: MDA-MB-231
Malme-3M = tested on: Malme-3M
M14 = tested on: M14
HOP-92 = tested on: HOP-92
MDA-MB-435 = tested on: MDA-MB-435
NCI-H226 = tested on: NCI-H226
SR = tested on: SR
MOLT-4 = tested on: MOLT-4
SNB-75 = tested on: SNB-75
SK-MEL-2 = tested on: SK-MEL-2
IGROV-1 = tested on: IGROV-1
SF-295 = tested on: SF-295
SW-620 = tested on: SW-620

O=[N+]([O-])c1oc2ccc3ccccc3c2c1CCO
GI50 (Hs-578T): 5.22 µM (inactive)
GI50 (LOX IMVI): 2.14 µM (inactive)
GI50 (OVCAR-5): 7.23 µM (inactive)
GI50 (UACC-62): 2.87 µM (inactive)
GI50 (HL-60): 1.74 µM (inactive)
GI50 (COLO 205): 0.346 µM (active)
GI50 (U-251): 9.44 µM (inactive)
GI50 (786-0): 5.27 µM (inactive)
GI50 (KM12): 9.33 µM (inactive)
GI50 (SK-MEL-28): 1.38 µM (inactive)
GI50 (SN12C): 6.21 µM (inactive)
GI50 (EKVX): 0.447 µM (active)
GI50 (OVCAR-8): 3.44 µM (inactive)
GI50 (OVCAR-3): 12.6 µM (inactive)
GI50 (NCI/ADR-RES): 4.79 µM (inactive)
GI50 (NCI-H522): 1.63 µM (inactive)
GI50 (SF-268): 5.47 µM (inactive)
GI50 (HOP-62): 16.6 µM (inactive)
GI50 (OVCAR-4): 3.18 µM (inactive)
GI50 (NCI-H23): 3.23 µM (inactive)
GI50 (SNB-19): 7.24 µM (inactive)
GI50 (SK-OV-3): 1.05 µM (active)
GI50 (CAKI-1): 2.25 µM (inactive)
GI50 (NCI-H460): 0.0479 µM (active)
GI50 (HT-29): 2.94 µM (inactive)
GI50 (BT-549): 2.29 µM (inactive)
GI50 (UO-31): 1.64 µM (inactive)
GI50 (A549): 1.9 µM (inactive)
GI50 (MDA-N): 1.77 µM (inactive)
GI50 (RXF 393): 1.58 µM (inactive)
GI50 (HCT-116): 2.29 µM (inactive)
GI50 (DU-145): 3.51 µM (inactive)
GI50 (SK-MEL-5): 0.546 µM (active)
GI50 (T47D): 13.2 µM (inactive)
GI50 (ACHN): 1.58 µM (inactive)
GI50 (RPMI-8226): 3.96 µM (inactive)
GI50 (K562): 1.96 µM (inactive)
GI50 (A498): 0.166 µM (active)
GI50 (HCT-15): 3.56 µM
GI50 (TK-10): 4.97 µM (inactive)
GI50 (CCRF-CEM): 3.86 µM (inactive)
GI50 (MCF7): 3.22 µM (inactive)
GI50 (HCC 2998): 0.435 µM (active)
GI50 (PC-3): 13.1 µM (inactive)
GI50 (SF-539): 3.28 µM (inactive)
GI50 (UACC-257): 1.94 µM (inactive)
GI50 (MDA-MB-231): 11.1 µM (inactive)
GI50 (Malme-3M): 1.78 µM (inactive)
GI50 (M14): 1.94 µM (inactive)
GI50 (HOP-92): 3.5 µM (inactive)
GI50 (MDA-MB-435): 1.53 µM (inactive)
GI50 (NCI-H226): 8.75 µM (inactive)
GI50 (SR): 0.114 µM (active)
GI50 (MOLT-4): 1.04 µM (active)
GI50 (SNB-75): 4.41 µM (inactive)
GI50 (SK-MEL-2): 1.85 µM (inactive)
GI50 (IGROV-1): 1.32 µM (inactive)
GI50 (SF-295): 1.57 µM (inactive)
GI50 (SW-620): 4.08 µM (inactive)

CCOC(=O)C1C2C1C1C(C(=O)OCC)C21 (configuration not stated)
GI50 (Hs-578T): > 100 µM (inactive)
GI50 (LOX IMVI): > 100 µM (inactive)
GI50 (OVCAR-5): > 100 µM (inactive)
GI50 (UACC-62): > 100 µM (inactive)
GI50 (HL-60): 63.8 µM (inactive)
GI50 (COLO 205): > 100 µM (inactive)
GI50 (U-251): > 100 µM (inactive)
GI50 (786-0): > 100 µM (inactive)
GI50 (KM12): > 100 µM (inactive)
GI50 (SK-MEL-28): > 100 µM (inactive)
GI50 (SN12C): > 100 µM (inactive)
GI50 (EKVX): > 100 µM (inactive)
GI50 (OVCAR-8): > 100 µM (inactive)
GI50 (OVCAR-3): > 100 µM (inactive)
GI50 (NCI/ADR-RES): > 100 µM (inactive)
GI50 (NCI-H522): > 100 µM (inactive)
GI50 (SF-268): > 100 µM (inactive)
GI50 (HOP-62): > 100 µM (inactive)
GI50 (OVCAR-4): > 100 µM (inactive)
GI50 (NCI-H23): > 100 µM (inactive)
GI50 (SNB-19): > 100 µM (inactive)
GI50 (SK-OV-3): > 100 µM (inactive)
GI50 (CAKI-1): > 100 µM (inactive)
GI50 (NCI-H460): > 100 µM (inactive)
GI50 (HT-29): 57.5 µM (inactive)
GI50 (BT-549): > 100 µM (inactive)
GI50 (UO-31): > 100 µM (inactive)
GI50 (A549): > 100 µM (inactive)
GI50 (MDA-N): > 100 µM (inactive)
GI50 (RXF 393): 81.8 µM (inactive)
GI50 (HCT-116): > 100 µM (inactive)
GI50 (DU-145): > 100 µM (inactive)
GI50 (SK-MEL-5): > 100 µM (inactive)
GI50 (T47D): 49.2 µM (inactive)
GI50 (ACHN): > 100 µM (inactive)
GI50 (RPMI-8226): 50.4 µM (inactive)
GI50 (K562): > 100 µM (inactive)
GI50 (A498): > 100 µM (inactive)
GI50 (HCT-15): > 100 µM
GI50 (TK-10): > 100 µM (inactive)
GI50 (CCRF-CEM): > 100 µM (inactive)
GI50 (MCF7): 51.3 µM (inactive)
GI50 (HCC 2998): > 100 µM (inactive)
GI50 (PC-3): > 100 µM (inactive)
GI50 (SF-539): > 100 µM (inactive)
GI50 (UACC-257): 61 µM (inactive)
GI50 (MDA-MB-231): > 100 µM (inactive)
GI50 (Malme-3M): > 100 µM (inactive)
GI50 (M14): > 100 µM (inactive)
GI50 (HOP-92): > 100 µM (inactive)
GI50 (MDA-MB-435): > 100 µM (inactive)
GI50 (NCI-H226): > 100 µM (inactive)
GI50 (SR): 52 µM (inactive)
GI50 (MOLT-4): > 100 µM (inactive)
GI50 (SNB-75): > 100 µM (inactive)
GI50 (SK-MEL-2): > 100 µM (inactive)
GI50 (IGROV-1): > 100 µM (inactive)
GI50 (SF-295): > 100 µM (inactive)
GI50 (SW-620): > 100 µM (inactive)

Cc1c(/N=N/c2ccc([N+](=O)[O-])cc2)nc2scc(-c3ccccc3)n12
GI50 (Hs-578T): > 78.7 µM (inactive)
GI50 (LOX IMVI): 57.1 µM (inactive)
GI50 (OVCAR-5): > 66.7 µM (inactive)
GI50 (UACC-62): > 65.6 µM (inactive)
GI50 (HL-60): 13.7 µM (inactive)
GI50 (COLO 205): > 100 µM (inactive)
GI50 (U-251): > 100 µM (inactive)
GI50 (786-0): > 100 µM (inactive)
GI50 (KM12): 53.5 µM (inactive)
GI50 (SK-MEL-28): > 100 µM (inactive)
GI50 (SN12C): > 100 µM (inactive)
GI50 (EKVX): > 100 µM (inactive)
GI50 (OVCAR-8): 71.6 µM (inactive)
GI50 (OVCAR-3): > 100 µM (inactive)
GI50 (NCI/ADR-RES): 73.1 µM (inactive)
GI50 (NCI-H522): 46.5 µM (inactive)
GI50 (SF-268): > 82.4 µM (inactive)
GI50 (HOP-62): > 66.5 µM (inactive)
GI50 (OVCAR-4): > 100 µM (inactive)
GI50 (NCI-H23): 90.8 µM (inactive)
GI50 (SNB-19): > 100 µM (inactive)
GI50 (SK-OV-3): > 100 µM (inactive)
GI50 (CAKI-1): > 73.3 µM (inactive)
GI50 (NCI-H460): 71.9 µM (inactive)
GI50 (HT-29): > 88.5 µM (inactive)
GI50 (BT-549): > 78.7 µM (inactive)
GI50 (UO-31): 58.7 µM (inactive)
GI50 (A549): > 100 µM (inactive)
GI50 (MDA-N): > 100 µM (inactive)
GI50 (RXF 393): 99.5 µM (inactive)
GI50 (HCT-116): > 100 µM (inactive)
GI50 (DU-145): > 100 µM (inactive)
GI50 (SK-MEL-5): > 100 µM (inactive)
GI50 (T47D): > 70.8 µM (inactive)
GI50 (ACHN): 63.4 µM (inactive)
GI50 (RPMI-8226): 67.1 µM (inactive)
GI50 (K562): 22 µM (inactive)
GI50 (A498): > 100 µM (inactive)
GI50 (HCT-15): 31.6 µM
GI50 (TK-10): > 74.6 µM (inactive)
GI50 (CCRF-CEM): 21.7 µM (inactive)
GI50 (MCF7): 49.4 µM (inactive)
GI50 (HCC 2998): > 100 µM (inactive)
GI50 (PC-3): 68.5 µM (inactive)
GI50 (SF-539): 82.6 µM (inactive)
GI50 (UACC-257): > 100 µM (inactive)
GI50 (MDA-MB-231): > 100 µM (inactive)
GI50 (Malme-3M): > 100 µM (inactive)
GI50 (M14): > 100 µM (inactive)
GI50 (HOP-92): > 100 µM (inactive)
GI50 (MDA-MB-435): > 100 µM (inactive)
GI50 (NCI-H226): > 100 µM (inactive)
GI50 (SR): 19.5 µM (inactive)
GI50 (MOLT-4): 19.6 µM (inactive)
GI50 (SNB-75): 44.5 µM (inactive)
GI50 (SK-MEL-2): > 100 µM (inactive)
GI50 (IGROV-1): > 84.1 µM (inactive)
GI50 (SF-295): 52.7 µM (inactive)
GI50 (SW-620): > 80.2 µM (inactive)
